Test results taken from PMC8586708, “SC75741, A Novel c-Abl Inhibitor, Promotes the Clearance of TDP25 Aggregates via ATG5-Dependent Autophagy Pathway” (Frontiers in Pharmacology, 2021).

Molecular target: T1, c-Abl (Homo sapiens, UniProt P00519)
T1 construct: gene ABL1
Assay: in vitro kinase assay, dose-response
Type: biochemical

T1 sequence (P00519 whole entry): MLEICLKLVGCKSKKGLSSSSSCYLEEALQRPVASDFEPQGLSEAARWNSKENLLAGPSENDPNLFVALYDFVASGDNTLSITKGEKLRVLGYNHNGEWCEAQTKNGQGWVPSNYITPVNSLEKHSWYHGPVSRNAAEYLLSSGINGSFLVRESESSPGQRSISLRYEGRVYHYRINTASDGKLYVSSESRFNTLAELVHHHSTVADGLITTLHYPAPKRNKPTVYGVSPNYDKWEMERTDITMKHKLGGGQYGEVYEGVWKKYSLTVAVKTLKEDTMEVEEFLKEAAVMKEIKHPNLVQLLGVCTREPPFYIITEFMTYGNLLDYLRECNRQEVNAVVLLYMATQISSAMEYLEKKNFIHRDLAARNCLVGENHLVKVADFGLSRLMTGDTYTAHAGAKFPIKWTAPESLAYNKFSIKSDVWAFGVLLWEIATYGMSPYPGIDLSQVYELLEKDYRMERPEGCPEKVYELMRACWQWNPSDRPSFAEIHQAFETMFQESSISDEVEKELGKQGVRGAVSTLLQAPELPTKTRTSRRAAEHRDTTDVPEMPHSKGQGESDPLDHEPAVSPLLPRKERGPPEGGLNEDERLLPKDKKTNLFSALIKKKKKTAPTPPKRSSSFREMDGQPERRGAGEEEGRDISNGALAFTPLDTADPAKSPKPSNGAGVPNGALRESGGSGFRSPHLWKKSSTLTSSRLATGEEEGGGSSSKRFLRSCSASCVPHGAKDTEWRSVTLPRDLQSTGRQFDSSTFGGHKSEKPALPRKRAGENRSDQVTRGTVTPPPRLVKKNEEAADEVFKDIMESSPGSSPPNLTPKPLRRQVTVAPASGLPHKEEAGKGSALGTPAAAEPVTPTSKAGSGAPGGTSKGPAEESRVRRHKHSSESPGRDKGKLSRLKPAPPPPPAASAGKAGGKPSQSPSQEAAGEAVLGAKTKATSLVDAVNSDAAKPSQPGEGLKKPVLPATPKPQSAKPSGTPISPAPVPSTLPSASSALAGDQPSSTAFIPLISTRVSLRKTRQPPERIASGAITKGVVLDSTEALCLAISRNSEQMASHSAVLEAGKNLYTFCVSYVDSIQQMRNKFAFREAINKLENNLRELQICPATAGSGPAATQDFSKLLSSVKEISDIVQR

## O=C(c1ccccc1)c1ccc2nc(NC(=O)c3csc(C4CCN(c5ncnc6ccsc56)CC4)n3)[nH]c2c1 [SC75741]
  IC50: 263 nM
